Patent publication US20230116602A1, “MCL1 INHIBITORS AND USES THEREOF” (California Institute of Technology, priority 2019, published 2023)
pIC50, pKd: −log10 of the molar value. Read-outs that look alike come from different tables or passages of the source.

Tests used:
MCL1 = MCL1 (Homo sapiens, UniProt Q07820); assay: MCL1 affinity assay (competition binding, qPCR readout); conditions: recombinant MCL1, 11-point 3-fold dilution series
Method in brief: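 Kds derived from an 11-point 3-fold compound series measured by qPCR of protein eluted from ligand beads. Recombinant, DNA-tagged protein from E. coli or HEK-293 was mixed with compound and peptide-liganded beads in SeaBlock/PBS/Tween/DTT buffer for 1 hour at room temperature (0.9% DMSO).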

BCL2 = BCL2 (Homo sapiens, UniProt P10415); assay: BCL2 affinity assay (competition binding, qPCR readout); conditions: recombinant BCL2, 11-point 3-fold dilution series
Procedure: (§1) Recombinant MCL1, BCL2 and BCXL proteins were prepared in either an E. coli host derived from the BL21 strain or in HEK-293 cells. The recombinant proteins were subsequently tagged with DNA for qPCR detection. Streptavidin-coated magnetic beads were treated for 30 minutes at room temperature with the respective biotinylated peptide ligands for each recombinant protein to generate affinity resins for the assays. The liganded beads were blocked with excess biotin and washed with blocking buffer (SeaBlock (Pierce), 1% BSA, 0.05% Tween 20, 1 mM DTT) to remove unbound ligand and to reduce nonspecific binding. Binding reactions were assembled by combining recombinant protein, liganded affinity beads, and test compounds in 1× binding buffer (20% SeaBlock, 0.17×PBS, 0.05% Tween 20, 6 mM DTT). Test compounds were prepared as 111X stocks in 100% DMSO. The compounds were then diluted directly into the assays such that the final concentration of DMSO was 0.9%. The assay plates were incubated at room temperature with shaking for 1 hour and the affinity beads were washed with wash buffer (1×PBS, 0.05% Tween 20). The beads were then re-suspended in elution buffer (1×PBS, 0.05% Tween 20, 0.5 μM non-biotinylated affinity ligand) and incubated at room temperature with shaking for 30 minutes. The recombinant protein concentration in the eluates was measured by qPCR. Kds were determined using an 11-point 3-fold compound dilution series with three DMSO control points.

BCLXL = BCLXL (Homo sapiens, UniProt Q07817); assay: BCLXL affinity assay (competition binding, qPCR readout); conditions: recombinant BCLXL, 11-point 3-fold dilution series
Procedure: as §1

[1] = test system: drug-sensitive cell lines of Table 3; assay: Cell line growth retardation assay, sensitive cohort; format: cell-based, Human; conditions: for pIC50: arithmetic mean of IC50s over the sensitive cohort of Table 3, 6 days growth, read-out: AvgSen IC50; for Fold Diff: average IC50 of resistant cohort divided by average IC50 of sensitive cohort
Method in brief: (§2)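 Over 6 days of treatment at six concentrations (0.0032–10 μM), given after a 24 h post-seeding rest, population doublings were counted by imaging against a pre-dose baseline and compared with vehicle. Per-line IC50 values came from dose-response fits; cohort averages used arithmetic means, with sensitive/resistant grouping based on response to reference MCL1 inhibitors.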

[2] = test system: drug-resistant cell lines of Table 3; assay: Cell line growth retardation assay, resistant cohort; format: cell-based, Human; conditions: arithmetic mean of IC50s over the resistant cohort of Table 3, 6 days growth, read-out: AvgRes IC50
Method in brief: as §2

[3] = test system: AMO-1 myeloma cell line xenograft; assay: AMO-1 myeloma cell line xenograft study; format: in vivo; conditions: AMO-1 xenograft, mice, IV QD for the first 5 days
Procedure: FIG. 1 are the results of an AMO-1 myeloma cell line xenograft study with a compound of Formula X. Eight mice were used per group, and mice were dosed by intravenous injection (IV) daily (QD) for the first 5 days of the study with various concentrations of the compound of Formula X.
(§3) FIG. 1 are the results of an AMO-1 myeloma cell line xenograft study with a compound of Formula X and with an MCL1 inhibitor being tested in humans and available as catalog number HY-112218 on Oct. 2, 2020 (MedChemExpress LLC, New Jersey, USA). Eight mice were used per group, and mice were dosed by intravenous injection (IV) daily (QD) for the first 5 days of the study with various concentrations of the compound of Formula X or with HY-112218. The 10 mg/kg dose of HY-112218 and the 60 mg/kg dose of the compound of Formula X are about the maximum tolerated dose for mice and represent a theoretical efficacious dose for humans.
Xenograft models of human cancer cell lines were established in six-week-old CD-1 athymic nude mice by subcutaneous injection of 1.0-3.0×10^7 cells with or without 50% matrigel. […] Tumor xenografts were measured with calipers three times per week, and tumor volume (in mm^3) was determined by multiplying height×width×length. […] Data were analyzed using StudyLog software from StudyDirector (San Francisco, Calif.).

[4] = Maximum tolerated dose in mice; conditions: CD-1 athymic nude, mouse, in vivo, iv
Procedure: as §3

BCL2, sequence (P10415 whole entry): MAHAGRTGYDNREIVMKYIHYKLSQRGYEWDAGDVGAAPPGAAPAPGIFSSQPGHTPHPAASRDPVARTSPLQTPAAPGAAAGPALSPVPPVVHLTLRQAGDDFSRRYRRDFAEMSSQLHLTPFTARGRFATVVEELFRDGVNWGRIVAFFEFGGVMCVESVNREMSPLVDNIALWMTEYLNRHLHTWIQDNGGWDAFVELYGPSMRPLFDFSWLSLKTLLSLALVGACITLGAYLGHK
MCL1, sequence (Q07820 whole entry): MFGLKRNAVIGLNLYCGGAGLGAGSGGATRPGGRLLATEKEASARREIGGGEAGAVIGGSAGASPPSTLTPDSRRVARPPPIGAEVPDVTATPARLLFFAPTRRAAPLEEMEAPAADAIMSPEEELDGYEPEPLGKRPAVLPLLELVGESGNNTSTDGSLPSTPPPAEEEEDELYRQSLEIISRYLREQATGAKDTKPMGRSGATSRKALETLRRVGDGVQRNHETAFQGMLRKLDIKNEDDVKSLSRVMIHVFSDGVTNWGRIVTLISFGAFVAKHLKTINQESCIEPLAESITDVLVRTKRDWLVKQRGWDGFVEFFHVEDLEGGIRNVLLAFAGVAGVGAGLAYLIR
BCLXL, sequence (Q07817 whole entry): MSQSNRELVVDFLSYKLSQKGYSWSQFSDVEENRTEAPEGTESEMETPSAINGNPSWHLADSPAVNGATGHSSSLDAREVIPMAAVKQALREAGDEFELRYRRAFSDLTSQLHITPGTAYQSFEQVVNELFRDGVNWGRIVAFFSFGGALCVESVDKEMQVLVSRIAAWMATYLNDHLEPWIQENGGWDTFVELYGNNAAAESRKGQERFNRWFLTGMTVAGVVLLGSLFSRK

Row | SMILES | pKd (MCL1) | pKd (BCL2) | pKd (BCLXL) | pIC50 ([1]; Homo sapiens, 144 h) | Fold Diff [1] | pIC50 ([2]; Homo sapiens, 144 h) | pIC50 [1] | pIC50 [2] | day of study at which treated tumors resumed growth [3] [days] | MTD at 5 days [4] [mg/kg]
1 | Cc1c(-c2c(-c3cccc(F)c3)ncc3snc(O[C@H](Cc4ccccc4)C(=O)O)c23)ccc(OCCN2CCN(C)CC2)c1Cl (atropisomer, axis not shown) [Compound 92] | 5.82 to 6.30 | < 5.82 | < 5.82 | 5.30 to 6.00 | − (“−” represents a fold difference less than 10) | < 5.30 |  |  |  | 
2 | Cc1c(-c2c(-c3ccc(F)s3)ncc3snc(O[C@H](Cc4ccccc4OCc4ccnn4CC(F)(F)F)C(=O)O)c23)ccc(OCCN2CCN(C)CC2)c1Cl (single isomer, unassigned) [Compound 1] | < 5.82 | < 5.82 | < 5.82 |  | − (“−” represents a fold difference less than 10) | < 5.30 | < 5.30 |  |  | 
3 | Cc1c(-c2c(Cl)ncc3snc(O[C@H](Cc4ccccc4OCc4ccnn4CC(F)(F)F)C(=O)O)c23)ccc(OCCN2CCN(C)CC2)c1Cl (single isomer, unassigned) [Compound 3] | < 5.82 | < 5.82 | < 5.82 | < 5.30 | − (“−” represents a fold difference less than 10) | < 5.30 |  |  |  | 
4 | Cc1c(-c2c(-c3ccc(F)cc3)ncc3snc(O[C@H](Cc4ccccc4OCc4ccnn4CC(F)(F)F)C(=O)O)c23)ccc(OCCN2CCN(C)CC2)c1Cl (single isomer, unassigned) [Compound 5] | < 5.82 | < 5.82 | < 5.82 |  | − (“−” represents a fold difference less than 10) |  | < 5.30 | < 5.30 |  | 
5 | Cc1c(-c2c(-c3ccc(F)cc3)ncc3snc(O[C@H](Cc4ccccc4OCc4ccnn4CC(F)(F)F)C(=O)O)c23)ccc(OCCN2CCN(C)CC2)c1Cl (single isomer, unassigned) [Compound 6] | 6.30 to 7.00 | < 5.82 | < 5.82 |  | − (“−” represents a fold difference less than 10) | < 5.30 | 5.30 to 6.00 |  |  | 
6 | COc1cccc(-c2ncc3snc(O[C@H](Cc4ccccc4OCc4ccnc(-c5ccccc5OC)n4)C(=O)O)c3c2-c2ccc(OCCN3CCOCC3)c(Cl)c2C)c1 (single isomer, unassigned) [Compound 42] | ≥ 7.00 | < 5.82 | < 5.82 | 5.30 to 6.00 | − (“−” represents a fold difference less than 10) | < 5.30 |  |  |  | 
7 | COc1ccccc1-c1nccc(COc2ccccc2C[C@@H](Oc2nsc3cnc(-c4ccc(F)cc4)c(-c4ccc(OCCN5CCN(C)CC5)c(Cl)c4C)c23)C(=O)O)n1 [Compound 40] | ≥ 7.00 | < 5.82 | < 5.82 | ≥ 6.00 | + (“+” represents a fold difference of 10 or more) | < 5.30 |  |  |  | 
8 | COc1ccccc1-c1nccc(COc2ccccc2C[C@@H](Oc2ncnc3sc(-c4ccc(F)cc4)c(-c4ccc(OCCN5CCN(C)CC5)c(Cl)c4C)c23)C(=O)O)n1 [HY-112218, (R)-2-((5-(3-chloro-2-methyl-4-(2-(4-methylpiperazin-1-yl)ethoxy)phenyl)-6-(4-fluorophenyl)thieno[2,3-d]pyrimidin-4-yl)oxy)-3-(2-((2-(2-methoxyphenyl)pyrimidin-4-yl)methoxy)phenyl)propanoic acid] |  |  |  |  |  |  |  |  | ~21 | ~10

Now from value to compound, other results behind:

Row | pKd (MCL1) | pKd (BCL2) | pKd (BCLXL) | SMILES | pIC50 ([1]; Homo sapiens, 144 h) | Fold Diff [1] | pIC50 ([2]; Homo sapiens, 144 h) | pIC50 [1] | pIC50 [2] | day of study at which treated tumors resumed growth [3] [days] | MTD at 5 days [4] [mg/kg]
9 | 6.30 to 7.00 | < 5.82 | < 5.82 | COc1cc(-c2nccc(COc3ccccc3C[C@@H](Oc3nsc4cnc(-c5cccc(F)c5)c(-c5ccc(OCCN6CCN(C)CC6)c(Cl)c5C)c34)C(=O)O)n2)ccn1 (atropisomer, axis not shown) [Compound 71] | ≥ 6.00 | + (“+” represents a fold difference of 10 or more) | < 5.30 |  |  |  | 
10 | ≥ 7.00 | < 5.82 | < 5.82 | Cc1c(-c2c(-c3cccc(F)c3)ncc3snc(O[C@H](Cc4ccccc4OCc4ccnc(-c5ccncc5)n4)C(=O)O)c23)ccc(OCCN2CCN(C)CC2)c1Cl (atropisomer, axis not shown) [Compound 72] | ≥ 6.00 | + (“+” represents a fold difference of 10 or more) | < 5.30 |  |  |  | 
11 | 5.82 to 6.30 | < 5.82 | < 5.82 | Cc1c(-c2c(-c3ccc(F)s3)ncc3snc(O[C@H](Cc4ccccc4OCc4ccnn4CC(F)(F)F)C(=O)O)c23)ccc(OCCN2CCN(C)CC2)c1Cl (single isomer, unassigned) [Compound 2] |  | − (“−” represents a fold difference less than 10) |  | 5.30 to 6.00 | < 5.30 |  | 
12 | 5.82 to 6.30 | < 5.82 | < 5.82 | Cc1c(-c2c(Cl)ncc3snc(O[C@H](Cc4ccccc4OCc4ccnn4CC(F)(F)F)C(=O)O)c23)ccc(OCCN2CCN(C)CC2)c1Cl (single isomer, unassigned) [Compound 4] |  | − (“−” represents a fold difference less than 10) |  | < 5.30 | < 5.30 |  | 
